The series has as its system CCRIS mutagenicity, Ames/micronucleus/aberration tests. In words: CCRIS mutagenicity studies.
Setting [1] is: Test System: AMES SALMONELLA TYPHIMURIUM, Strain/Indicator: TA98, Metabolic Activation: NONE, Method: PREINCUBATION
[2] abbreviates: Test System: AMES SALMONELLA TYPHIMURIUM, Strain/Indicator: TA100, Metabolic Activation: NONE, Method: PREINCUBATION
Where [3] appears, read: Test System: AMES SALMONELLA TYPHIMURIUM, Strain/Indicator: TA1535, Metabolic Activation: NONE, Method: PREINCUBATION
[4] abbreviates: Test System: AMES SALMONELLA TYPHIMURIUM, Strain/Indicator: TA97A, Metabolic Activation: NONE, Method: STANDARD PLATE.
[5] abbreviates: Test System: AMES SALMONELLA TYPHIMURIUM, Strain/Indicator: TA98, Metabolic Activation: NONE, Method: STANDARD PLATE.
[6] abbreviates: Test System: AMES SALMONELLA TYPHIMURIUM, Strain/Indicator: TA100, Metabolic Activation: NONE, Method: STANDARD PLATE.
Where [7] appears, read: Test System: CHINESE HAMSTER V-79, Strain/Indicator: V-79 (HGPRT)/6-THIOGUANINE, Metabolic Activation: NONE.
[8] abbreviates: Test System: AMES SALMONELLA TYPHIMURIUM, Strain/Indicator: TA1535, Metabolic Activation: NONE, Method: STANDARD PLATE.

Calls of active or inactive are those of the source. The rule behind the calls is not given here.

With `N[C@@H](CSc1c(Cl)c(Cl)c(Cl)c(Cl)c1Cl)C(=O)O`, the mutagenic call was “inactive; negative” under setting [1]; “inactive; negative” (Test System: AMES SALMONELLA TYPHIMURIUM, Strain/Indicator: TA98, Metabolic Activation: RAT, LIVER OR KIDNEY, MICROSOMES, Method: PREINCUBATION); “inactive; negative” under setting [2]; “inactive; negative” (Test System: AMES SALMONELLA TYPHIMURIUM, Strain/Indicator: TA100, Metabolic Activation: RAT, LIVER OR KIDNEY, MICROSOMES, Method: PREINCUBATION); “inactive; negative” (Test System: AMES SALMONELLA TYPHIMURIUM, Strain/Indicator: TA102, Metabolic Activation: NONE, Method: PREINCUBATION); “inactive; negative” (Test System: AMES SALMONELLA TYPHIMURIUM, Strain/Indicator: TA102, Metabolic Activation: RAT, LIVER OR KIDNEY, MICROSOMES, Method: PREINCUBATION). Besides, the mutagenic call was “inactive; negative” (Test System: AMES SALMONELLA TYPHIMURIUM, Strain/Indicator: TA2638, Metabolic Activation: NONE, Method: PREINCUBATION) and “inactive; negative” (Test System: AMES SALMONELLA TYPHIMURIUM, Strain/Indicator: TA2638, Metabolic Activation: RAT, LIVER OR KIDNEY, MICROSOMES, Method: PREINCUBATION).

Regarding `Cc1c2ccccc2c(C)c2c3c(ccc12)[C@H](O)[C@@H](O)C=C3`, the mutagenic call (Test System: CHINESE HAMSTER V-79, Strain/Indicator: V-79/6-THIOGUANINE, Metabolic Activation: CELL-MEDIATED, Method: STANDARD PLATE) was “active; positive” and the mutagenic call (Test System: CHINESE HAMSTER V-79, Strain/Indicator: V-79/OUABAIN, Metabolic Activation: CELL-MEDIATED, Method: STANDARD PLATE) was “active; positive”.

Turning to `CCS(=O)CCSP(=O)(OC)OC` (configuration not stated), the mutagenic call reads like this: (Test System: AMES SALMONELLA TYPHIMURIUM, Strain/Indicator: TA97, Metabolic Activation: HAMSTER, LIVER, S-9, AROCLOR 1254 (10%), Method: PREINCUBATION) “inactive; negative”; (Test System: AMES SALMONELLA TYPHIMURIUM, Strain/Indicator: TA97, Metabolic Activation: NONE, Method: PREINCUBATION) “inactive; negative”; (Test System: AMES SALMONELLA TYPHIMURIUM, Strain/Indicator: TA97, Metabolic Activation: RAT, LIVER, S-9, AROCLOR 1254 (10%), Method: PREINCUBATION) “inactive; negative”; (Test System: AMES SALMONELLA TYPHIMURIUM, Strain/Indicator: TA98, Metabolic Activation: HAMSTER, LIVER, S-9, AROCLOR 1254 (10%), Method: PREINCUBATION) “inactive; negative”; under setting [1], “inactive; negative”; (Test System: AMES SALMONELLA TYPHIMURIUM, Strain/Indicator: TA98, Metabolic Activation: RAT, LIVER, S-9, AROCLOR 1254 (10%), Method: PREINCUBATION) “inactive; negative”. Further, the mutagenic call is “active; positive” (Test System: AMES SALMONELLA TYPHIMURIUM, Strain/Indicator: TA100, Metabolic Activation: HAMSTER, LIVER, S-9, AROCLOR 1254 (10%), Method: PREINCUBATION); “inactive; negative” under setting [2]; “active; positive” (Test System: AMES SALMONELLA TYPHIMURIUM, Strain/Indicator: TA100, Metabolic Activation: RAT, LIVER, S-9, AROCLOR 1254 (10%), Method: PREINCUBATION); “active; positive” (Test System: AMES SALMONELLA TYPHIMURIUM, Strain/Indicator: TA1535, Metabolic Activation: HAMSTER, LIVER, S-9, AROCLOR 1254 (10%), Method: PREINCUBATION); “active; positive” under setting [3]; “active; positive” (Test System: AMES SALMONELLA TYPHIMURIUM, Strain/Indicator: TA1535, Metabolic Activation: RAT, LIVER, S-9, AROCLOR 1254 (10%), Method: PREINCUBATION).

Consider `C\C=C(/C=C(C)/C=C(C)/C=C/C=C(\C)C(=O)[C@]12O[C@H]1[C@@](O)(CCO)NC2=O)C(=O)OC`, for which the mutagenic call under setting [4] is “inactive; negative”; the mutagenic call (Test System: AMES SALMONELLA TYPHIMURIUM, Strain/Indicator: TA97A, Metabolic Activation: RAT, LIVER, S-9, AROCLOR 1254, Method: STANDARD PLATE) is “active; positive”; the mutagenic call under setting [5] is “inactive; negative”; the mutagenic call (Test System: AMES SALMONELLA TYPHIMURIUM, Strain/Indicator: TA98, Metabolic Activation: RAT, LIVER, S-9, AROCLOR 1254, Method: STANDARD PLATE) was “active; positive”; the mutagenic call under setting [2] was “active; positive”; the mutagenic call under setting [6] is “inactive; negative”. Besides, the mutagenic call is “active; positive” (Test System: AMES SALMONELLA TYPHIMURIUM, Strain/Indicator: TA100, Metabolic Activation: RAT, LIVER, MICROSOMES, PHENOBARBITAL, Method: PREINCUBATION); “active; positive” (Test System: AMES SALMONELLA TYPHIMURIUM, Strain/Indicator: TA100, Metabolic Activation: RAT, LIVER, S-9, AROCLOR 1254, Method: STANDARD PLATE); “inactive; negative” (Test System: AMES SALMONELLA TYPHIMURIUM, Strain/Indicator: TA102, Metabolic Activation: NONE, Method: STANDARD PLATE); “inactive; negative” (Test System: AMES SALMONELLA TYPHIMURIUM, Strain/Indicator: TA102, Metabolic Activation: RAT, LIVER, S-9, AROCLOR 1254, Method: STANDARD PLATE).

`Oc1ccc(O)c(-c2ccccc2)c1`: under setting [7], the mutagenic call was “inactive; negative”.

Consider `COc1ccc2c(cc3c4c(cc5c(c42)OCO5)C(=O)C(=O)N3C)c1OC`, for which the mutagenic call is “active; positive” (Test System: AMES SALMONELLA TYPHIMURIUM, Strain/Indicator: TA98, Metabolic Activation: RAT, LIVER, S-9, PHENOBARBITAL AND BETA-NAPHTHOFLAVONE, Method: PREINCUBATION) and “active; positive” (Test System: AMES SALMONELLA TYPHIMURIUM, Strain/Indicator: TA100, Metabolic Activation: RAT, LIVER, S-9, PHENOBARBITAL AND BETA-NAPHTHOFLAVONE, Method: PREINCUBATION).

With `Cc1ccc(S(=O)(=O)N2C3c4ccccc4-c4ccccc4C32)cc1` (configuration not stated), under setting [6], the mutagenic call was “active; positive”.

In the case of `CCOP(=O)(OCC)Oc1cc(C)nc(C(C)C)n1`, the mutagenic call runs as follows: under setting [5], “inactive; negative”; (Test System: AMES SALMONELLA TYPHIMURIUM, Strain/Indicator: TA98, Metabolic Activation: RAT, LIVER, S-9, Method: STANDARD PLATE) “inactive; negative”; under setting [6], “active; positive”; (Test System: AMES SALMONELLA TYPHIMURIUM, Strain/Indicator: TA100, Metabolic Activation: RAT, LIVER, S-9, Method: STANDARD PLATE) “inactive; negative”.

As to `N#C[Se]Cc1ccccc1`, the mutagenic call reads like this: under setting [4], “inactive; negative”; under setting [6], “active; positive”.

For the molecule `CCCCCCC1CO1` (configuration not stated), the mutagenic call under setting [6] is “inactive; negative”; the mutagenic call under setting [8] is “inactive; negative”; the mutagenic call (Test System: UDS RAT HEPATOCYTES, Strain/Indicator: THY INCORP, Metabolic Activation: NONE) is “inactive; negative”.

`COc1ccc(CC2CO2)cc1` (configuration not stated): the mutagenic call by setting is: under setting [2], “active; positive”; under setting [6], “active; positive”; under setting [3], “active; positive”; under setting [8], “active; positive”.

With `OC1c2c(ccc3c2ccc2ccccc23)C2OC2C1O` (configuration not stated), the mutagenic call reads like this: under setting [1], “active; positive”; (Test System: CHINESE HAMSTER V-79, Strain/Indicator: V-79/6-THIOGUANINE, Metabolic Activation: NONE) “active; positive”.

In the case of `CCN(CC)CCCNc1ccc2ncn3c4ccc(O)cc4c(=O)c1c23`, the mutagenic call under setting [7] was “active; positive”.
